Results: patent US8252748B2, “Peptide derived from neurotensin receptor 3 and use thereof in the treatment of psychiatric diseases” (Centre National de la Recherche Scientifique—CNRS, priority 2007, dated 2012)

Assays:
TREK-1 channel = molecular target: T1, TREK-1 channel (Homo sapiens, UniProt O95069); experiment: Whole-cell patch clamp of TREK-1 channel activity in transfected COS-7 cells; assay type: cell-based; conditions: activation by 10 μM arachidonic acid alone (baseline 31 pA/pF)
T1 construct: expressed in transfected cells; host or cells: COS-7 cells (ATCC CRL-1651), DEAE-dextran transfection
T1 sequence (O95069 1-426): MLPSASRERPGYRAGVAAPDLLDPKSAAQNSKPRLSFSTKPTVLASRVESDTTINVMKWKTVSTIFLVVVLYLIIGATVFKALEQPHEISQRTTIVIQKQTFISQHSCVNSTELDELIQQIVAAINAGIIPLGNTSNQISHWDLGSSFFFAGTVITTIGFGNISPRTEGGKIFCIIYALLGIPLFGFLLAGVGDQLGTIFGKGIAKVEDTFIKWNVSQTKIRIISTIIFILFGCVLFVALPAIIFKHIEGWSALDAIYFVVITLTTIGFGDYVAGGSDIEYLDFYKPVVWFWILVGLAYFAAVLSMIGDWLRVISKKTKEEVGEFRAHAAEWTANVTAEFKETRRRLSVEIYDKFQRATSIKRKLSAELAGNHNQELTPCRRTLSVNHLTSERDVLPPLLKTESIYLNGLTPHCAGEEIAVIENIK
Description: All the experiments for measuring the effect of the propeptide were conducted on COS-7 cells (cell line derived from kidney fibroblasts of African green monkey Cercopithecus aethiops). These cells are sown at a density of 20 000 cells/dish with diameter of 35 mm, 24 hours before being transfected by the DEAE-dextran method with 1 μg of pIRES-EGFP-TREK-1 plasmid. Measurements of current were taken 48 to 72 hours after transfection.
Culture of the COS-7 cells. The COS-7 cells (ATCC reference: CRL-1651) are cultivated in DMEM medium (Gibco)/10% fetal calf serum (FCS, ICN), at 37° C. in the presence of 5% CO2.
Transfection using DEAE dextran. On day 1, the COS-7 cells are sown at 20 000 cells per 35-mm diameter dish containing 2 ml of culture medium. On day 2, the medium is removed and the cells are covered with 200 μl of PBS (Gibco) containing 1 μg of pIRES-EGFP-TREK-1 plasmid and 100 μg of DEAE-dextran (Sigma) then placed at 37° C./5% CO2. After incubation for 30 minutes, 2 ml of medium DMEM/10% NuSerum/80 μM chloroquin is added. After 3 hours, the medium is replaced with 2 ml of DMEM/10% FCS and the cells are incubated for 48 to 72 hours before being measured by electrophysiological methods.
Electrophysiological measurements: all the measurements are taken at room temperature, i.e. at 21-22° C. The cells that were transfected by the plasmid are detected from the fluorescence emitted by the EGFP after excitation at 480 nm.
The whole-cell patch clamp technique was used for measuring the activity of the TREK-1 channels. The equipment used is the RK 400 patch-clamp amplifier (Axon Instruments, U.S.A.). The patch pipettes with resistance of 1.3 to 8 MΩ are prepared from capillaries of borosilicate glass and are filled with a solution of 155 mM KCl, 3 mM MgCl2, 5 mM EGTA, 10 mM HEPES/KOH pH 7.2.
The cell culture medium is replaced with a solution of 150 mM NaCl, 5 mM KCl, 3 mM MgCl2, 1 mM CaCl2, 10 HEPES/NaOH pH 7.4 containing 10 mM tetraethyl ammonium chloride, 3 mM of 4-aminopyridin. The cells are perfused continuously with this solution. The rest potential of the membrane of the measured cell is fixed at −80 mV.
The variations in voltage are obtained either with a continuous ramp (from −100 to +50 mV) or by potential jumps of 10 mV (from −100 to +40 mV, 1.5 second per jump).
The data obtained were analyzed with the Pclamp software. The currents described in the appended FIG. 2B were obtained at 0 mV, the results expressed are the mean values±standard deviation. The IC50 value was obtained by plotting the experimental data with a sigmoidal function.
The activity of the channel is then measured by the patch-clamp technique in whole-cell configuration as described above.

[1] = system: hippocampus progenitor cells; experiment: Neurogenesis (BrdU-positive cells) after 4 days of treatment; assay type: in vivo, mouse; conditions: fluoxetine 3 mg/kg
Source text: In contrast to many antidepressants now commonly used, the efficacy of action of the peptide of the invention is very rapid. […] 93: 3908-3913 (1996) (28) and with a considerable decrease in neurogenesis in the dentate gyrus (Gould, E., Tanapat, P., McEwen, B. S., Flugge, G., Fuchs, E. “Proliferation of granule cell precursors in the dentate gyrus of adult monkeys is diminished by stress” Proc Natl Acad Sci USA, 95: 3168-3171 (1998)) (29).
The experimental protocol is that described in the material and methods (Supplement) of the work of Santarelli et al., “Requirement of hippocampal neurogenesis for the behavioral effects of antidepressants” Science, 301: 805-809 (2003) (24) apart from the duration of treatment, which is four days.
The increase was evaluated using the one-factor ANOVA test followed by the post-hoc test.

mouse (C57Black/J) = experiment: Conditioned motility suppression test (CMST); assay type: in vivo; conditions: fluoxetine 3 mg/kg; 30 min after injection
Source text: The inventors conducted three types of behavioral experiments that are regarded as classical for determining the antidepressant activity of a substance (Nestler E. J., Gould E., Manji H., Buncan M., Duman R. S., Greshenfeld H. K., Hen, R. et al. “Preclinical models: status of basic research in depression” Biol Psychiatry. 15, 503-528 (2002) (20) and Cryan, J. & Holmes, A. “The ascent of mouse: advances in modeling human depression and anxiety” Nat Rev Drug Discov. 4, 775-790 (2005) (21)). The effects of the propeptide of the present invention were compared with those of the saline solution in which it is dissolved and with those of fluoxetine, one of the most-used antidepressants in clinical practice. The mouse strain used is C57Black/J strain. TREK-1^−/− mice were also measured in these various tests.
In the next two tests, the propeptide of the present invention was administered by the IV route at a rate of 100 μl at 1 μM per animal.
C. Conditioned Motility Suppression Test (CMST) (see Daugé, V., Sebret, A., Beslot, F., Matsui, T., & Rogues B. “Behavioral profile of CCK2 receptor-deficient mice” Neuropsychopharmacol; 25: 690-698 (2001) (23).
The experiment consists of conditioning the mouse on day 1, and measuring the effects of the substances on day 2.
On day 1, each mouse is placed in a box where the floor is a metal grille connected to an electric stimulator. […]

current density at 0 mV (TREK-1 channel) | SMILES | neurogenesis relative to physiological saline [1] | motility relative to untreated shocked mice (mouse (C57Black/J))
130 pA/pF | CCCCC/C=C\C/C=C\C/C=C\C/C=C\CCCC(=O)O [arachidonic acid, reference compound] |  | 
 | CNCCC(Oc1ccc(C(F)(F)F)cc1)c1ccccc1 (stereo not drawn) [fluoxetine, reference compound] | identical to that induced by the injection of physiological saline solution | 5 times greater
